In ChEMBL document CHEMBL4665735, “Discovery of a d-pro-lys peptidomimetic inhibitor of MMP9: Addressing the gelatinase selectivity beyond S1' subsite” (Bioorg Med Chem Lett, 2020):

Key:
[1] = target: 72 kDa type IV collagenase (Homo sapiens, UniProt P08253); experiment: Inhibition of MMP2 (unknown origin) using Mca-Lys-Pro-Leu-GlyLeu-Dpa-Ala-Arg-NH2 as substrate by fluorometric assay
[2] = target: Matrix metalloproteinase-9 (Homo sapiens, UniProt P14780); experiment: Inhibition of MMP9 (unknown origin) using Mca-Lys-Pro-Leu-GlyLeu-Dpa-Ala-Arg-NH2 as substrate by fluorometric assay
Sequence of Matrix metalloproteinase-9 (P14780 whole entry): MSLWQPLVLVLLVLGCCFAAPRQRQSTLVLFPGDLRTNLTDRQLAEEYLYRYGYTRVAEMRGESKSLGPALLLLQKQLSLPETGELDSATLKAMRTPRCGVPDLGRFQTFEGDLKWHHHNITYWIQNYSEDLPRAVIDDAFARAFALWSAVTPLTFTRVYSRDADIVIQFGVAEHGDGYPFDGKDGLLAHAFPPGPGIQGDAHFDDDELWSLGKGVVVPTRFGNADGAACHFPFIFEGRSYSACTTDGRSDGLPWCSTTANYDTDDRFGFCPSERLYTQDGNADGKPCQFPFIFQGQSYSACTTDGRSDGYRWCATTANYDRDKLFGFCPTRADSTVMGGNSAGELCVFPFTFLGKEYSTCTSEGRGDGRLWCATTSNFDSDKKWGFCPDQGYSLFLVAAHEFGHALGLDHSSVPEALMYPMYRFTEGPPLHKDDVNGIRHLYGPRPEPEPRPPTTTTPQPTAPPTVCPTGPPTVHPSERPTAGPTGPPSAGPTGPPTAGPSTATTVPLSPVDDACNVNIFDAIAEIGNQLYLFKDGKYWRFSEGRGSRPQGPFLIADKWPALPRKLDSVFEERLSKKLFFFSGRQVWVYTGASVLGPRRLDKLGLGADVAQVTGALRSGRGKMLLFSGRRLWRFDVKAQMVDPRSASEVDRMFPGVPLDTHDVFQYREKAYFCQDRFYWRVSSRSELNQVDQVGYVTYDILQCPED

Sequence of 72 kDa type IV collagenase (P08253 whole entry): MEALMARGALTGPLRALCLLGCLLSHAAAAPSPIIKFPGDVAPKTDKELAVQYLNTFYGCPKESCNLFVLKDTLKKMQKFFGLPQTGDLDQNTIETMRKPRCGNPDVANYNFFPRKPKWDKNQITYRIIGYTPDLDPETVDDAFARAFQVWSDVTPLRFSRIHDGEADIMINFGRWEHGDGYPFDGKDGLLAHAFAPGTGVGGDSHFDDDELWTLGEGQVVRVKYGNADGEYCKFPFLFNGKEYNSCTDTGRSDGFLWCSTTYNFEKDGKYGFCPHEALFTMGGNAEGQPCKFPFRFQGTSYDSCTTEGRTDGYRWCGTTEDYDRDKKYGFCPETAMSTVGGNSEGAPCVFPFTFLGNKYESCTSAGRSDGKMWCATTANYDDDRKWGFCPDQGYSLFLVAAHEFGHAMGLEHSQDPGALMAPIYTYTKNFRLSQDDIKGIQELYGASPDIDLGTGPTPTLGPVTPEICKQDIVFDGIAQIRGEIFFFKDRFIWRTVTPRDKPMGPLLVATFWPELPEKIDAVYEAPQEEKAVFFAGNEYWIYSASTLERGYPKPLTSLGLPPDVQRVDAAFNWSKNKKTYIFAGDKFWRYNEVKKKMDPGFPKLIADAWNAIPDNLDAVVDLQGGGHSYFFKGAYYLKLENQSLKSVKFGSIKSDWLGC

| IC50 [1] [nM] | IC50 [2] [nM] | SMILES |
| --- | --- | --- |
| 91 | 49 | COc1ccc(S(=O)(=O)N2C[C@H](NC(=O)CCCNC(=O)OC(C)(C)C)C[C@@H]2C(=O)NO)cc1 |
|  | 22 | COc1ccc(S(=O)(=O)N2CCC[C@@H]2C(=O)NO)cc1 |
| 1260 | 5.7 | COc1ccc(S(=O)(=O)N2C[C@H](NC(=O)[C@@H](N)CCCCN)C[C@@H]2C(=O)NO)cc1 |
| 432 | 27 | COc1ccc(S(=O)(=O)N2C[C@H](NC(=O)[C@H](CCCCN)NC(=O)OC(C)(C)C)C[C@@H]2C(=O)NO)cc1 |
| 302 | 53 | COc1ccc(S(=O)(=O)N2C[C@H](NC(=O)CCCN)C[C@@H]2C(=O)NO)cc1 |
| 15 | 154 | COc1ccc(S(=O)(=O)N2C[C@H](NC(=O)[C@@H](N)CCCN)C[C@@H]2C(=O)NO)cc1 |
| 1320 | 3420 | COc1ccc(S(=O)(=O)N2C[C@H](NC(=O)[C@H](CCCN)NC(=O)OC(C)(C)C)C[C@@H]2C(=O)NO)cc1 |
| 26 | 13 | COc1ccc(S(=O)(=O)N2C[C@H](NC(=O)C(C)(C)C)C[C@@H]2C(=O)NO)cc1 |
| 62 | 98 | CCCC[C@H](N)C(=O)N[C@@H]1C[C@H](C(=O)NO)N(S(=O)(=O)c2ccc(OC)cc2)C1 |
| 87 | 131 | CCCC[C@H](NC(=O)OC(C)(C)C)C(=O)N[C@@H]1C[C@H](C(=O)NO)N(S(=O)(=O)c2ccc(OC)cc2)C1 |
